Experimental data taken from patent US20160002174A1, “CXCR4 Antagonists for the Treatment of Medical Disorders” (Emory University, priority 2005, published 2016).
Entries after “also recorded” stand apart in the source; their conditions may differ.

How the values were obtained:
[1] = target: CXCR4 (Homo sapiens, UniProt P61073); assay: Competition assay using biotin-labeled TN14003 and streptavidin-conjugated rhodamine on tumor cells; type: binding; conditions: cells pre-incubated with different concentrations
Protocol: FIG. 8 is images of fluorescens micrographs of stained cells. Biotin-labeled TN14003 was used to detect CXCR4 protein from the cells pre-incubated with various concentrations of WZZL811S.
Using biotin-labeled TN14003 along with streptavidin-conjugated rhodamine allowed a determination of the binding efficiency of these chemicals to the SDF-1 binding site of CXCR4 on tumor cells and compared it to AMD3100-SDF-1 interactions (FIG. 7). […] Cells were pre-incubated with different concentrations of AMD3100. […] Therefore, one of these compounds, WZZL811S, was selected to study its therapeutic potential based on potency and low toxicity to cells (FIG. 9).

[2] = tested on: Erk1/2 phosphorylation; assay: SDF-1-stimulated Erk1/2 phosphorylation; type: cell-based, human; conditions: data not shown
Source text: (§1) CXCR4/SDF-1 interaction activates PI3K/Akt and Ras/Raf/MEK/Erk pathways in a Gαi protein (PTX-sensitive)-dependent manner.

[3] = cited from earlier work
[4] = tested on: phosphorylation of Akt; assay: SDF-1-stimulated phosphorylation of Akt (western blot); type: cell-based, human; conditions: for blocking of SDF-1-stimulated Akt phosphorylation (dose-dependent): MDA-MB-231 cells, 100 ng/ml SDF-1 for 30 min
Source text: FIG. 2 is an image of a western blot showing phosphorylation of Akt.
FIG. 10 is a graph and representative blot of matrigel invasion and Akt phosphorylation in cells.
as §1

[5] = tested on: CXCR4 protein levels; assay: CXCR4 protein levels in treated cells; type: cell-based, human
Source text: as §1

[6] = tested on: SHIV; assay: SHIV infection, p27 antigen capture; type: cell-based; conditions: 0.1, 1, 10 or 100 nM drug prior to infection; 2 to 5 days
Protocol: The effect of the test compounds on HIV infection in model cells was analyzed by p27 antigen capture using SHIV infected cells. Cells were incubated with 0, 0.1, 1, 10 or 100 nM drug prior to infection with SHIV. Viral titer was measured after infection by analyzing levels of p27 antigen. […] The inhibition was measurable at 2 days, and continued to 5 day incubations.

[7] = tested on: metastatic 686LN cells; assay: Head & Neck cancer metastasis model, 686LN cells injected through the tail vein, FDG-PET; type: in vivo, mice; conditions: 20 mg/mouse/twice weekly, thirty days
Protocol: The metastatic 686LN cells were injected intravenously through the tail vein to generate experimental animal models for Head & Neck cancer metastasis, modulated via CXCR4. […] These 3-D projection images show lung metastases well (bone mets and liver mets were apparent in axial section images of mice in control groups, data not shown).

[8] = tested on: human umbilical vein endothelial cells (HUVECs); assay: Endothelial capillary tube formation assay; type: cell-based; conditions: 100 nM, SDF-1 100 ng/ml, 18 hours
Protocol: The anti-angiogenic effect of test compounds was measured by analyzing endothelial cell growth and tube formation. The angiogenic effect of SDF-1 (100 ng/ml) on capillary formation by human umbilical vein endothelial cells (HUVECs) was examined in vitro using Matrigel-coated 24-well plates precoated with Matrigel and incubated for 18 hours. The angiogenic effect of SDF-1 was inhibited by either 100 nM TN14003 (peptide-based CXCR4 antagonist) or WZZL811S treatment (FIG. 14a, graph FIG. 14b).

[9] = tested on: MDA-MB-231 cells; assay: Cell viability of MDA-MB-231 cells; type: cell-based, human; conditions: even at 100 μM (the highest concentration tested)
[10] = tested on: CXCR4/SDF-1 mediated invasion of MDA-MB-231; assay: Matrigel invasion assay, CXCR4/SDF-1-mediated invasion; type: cell-based, human; conditions: MDA-MB-231, 2 nM
Protocol: FIG. 10 is a graph and representative blot of matrigel invasion and Akt phosphorylation in cells. A: Inhibition of CXCR4/SDF-1 mediated invasion of MDA-MB-231 in vitro by WZZL811S. CXCR4/SDF-1 mediated invasion of MDA-MB-231 was blocked either by 2 nM of TN14003 or WZZL811S. B: Incubating MDA-MB-231 cells with 100 ng/ml of SDF-1 for 30 min stimulated phosphorylation of Akt that blocked by WZZL811S in a dose-dependent manner
Lowering CXCR4 mRNA levels by siRNAs inhibited CXCR4/SDF-1-mediated invasion as measured by a matrigel invasion assay. The CXCR4 ligand, SDF-1 (400 ng/ml) was added to the lower chamber to attract CXCR4-positive breast cancer cells to migrate through the matrigel. The invasion of MDA-MB-231 cells transfected with siRNA1 decreased to 39±4% of the control cells, 51±8% with siRNA2, and only 16±6% with both siRNA1+2 (FIG. 3A).
WZZL811S was tested in a matrigel invasion assay to determine whether it can inhibit CXCR4/SDF-1-mediated invasion.

Sequence of CXCR4 (P61073 whole entry): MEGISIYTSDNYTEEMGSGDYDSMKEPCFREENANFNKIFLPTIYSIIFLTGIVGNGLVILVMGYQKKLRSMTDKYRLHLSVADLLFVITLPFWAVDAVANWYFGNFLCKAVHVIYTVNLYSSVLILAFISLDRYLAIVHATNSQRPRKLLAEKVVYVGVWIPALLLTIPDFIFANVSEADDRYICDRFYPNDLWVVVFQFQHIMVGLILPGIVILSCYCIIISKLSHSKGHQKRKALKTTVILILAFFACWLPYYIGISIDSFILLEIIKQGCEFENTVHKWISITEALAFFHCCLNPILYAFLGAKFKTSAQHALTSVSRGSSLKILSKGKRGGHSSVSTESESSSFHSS

| Compound | concentration needed to compete against biotin-labeled TN14003 [1] [µM] | concentration attenuating Erk1/2 phosphorylation [2] [nM] | side effect in clinical study [3] | concentration blocking Akt activation ([4]; 100 ng/ml SDF-1 for 30 minutes) | blocking of SDF-1-stimulated Akt phosphorylation (dose-dependent) [4] | effect on CXCR4 protein levels [5] | inhibition of SHIV infection (p27 antigen) [6] | efficacy relative to TN14003 [7] [%] | inhibition of the angiogenic effect of SDF-1 (tube formation) [8] | effect on cell viability [9] | blocking of SDF-1-induced matrigel invasion [10] |
| --- | --- | --- | --- | --- | --- | --- | --- | --- | --- | --- | --- |
| C1=CC(CN2CCCNCCNCCCNCC2)CC=C1CN1CCCNCCNCCCNCC1 (stereo not drawn) [AMD3100] | 10 | 100 | cardiac-related side effect | a few nano molar | blocked | did not affect | – | – | – | – | – |
| c1ccc(NCc2ccc(CNc3ccccn3)cc2)nc1 [WZZL811S] | – | – | – | – | blocked | – | inhibited SHIV infection at all concentrations tested | 80 | inhibited | did not decrease cell viability | blocked; also recorded: as potent as TN14003 |
